According to US12263248B2, “Compounds and compositions for intracellular delivery of therapeutic agents” (ModernaTX, Inc., priority 2018, dated 2025):

Key:
[1] = Particle size and polydispersity index of nanoparticle compositions (Zetasizer Nano ZS); format: physicochemical
How it was run: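 Particle size and PDI were measured on a Zetasizer Nano ZS with the nanoparticle compositions dispersed in 1×PBS.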

[2] = Encapsulation efficiency of RNA (QUANT-IT RIBOGREEN RNA assay); format: physicochemical
How it was run: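 RiboGreen fluorescence (ex ~480, em ~520 nm) compared between intact samples and Triton X-100-lysed samples after 15 min at 37 °C in TE buffer, pH 7.5. Percent free RNA is the blank-corrected intact/disrupted ratio.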

[3] = Apparent (surface) pKa of the LNP formulation (TNS assay); format: physicochemical; conditions: for pKa: Table 1A
How it was run: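 LNP (0.04 mg/mL mRNA) mixed with TNS reagent in 21 buffers spanning about pH 3-12, in triplicate; fluorescence plotted against pH as sigmoidal curve. Apparent pKa taken as […] curve inflection point; validated in 1× PBS and 20 mM Tris w/8% sucrose.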

luciferase (Luc) mRNA [4] = assay: Luc expression, whole body bioluminescence after intravenous administration to mice; format: in vivo; conditions: for Lipid/MC3 AUC / AUC (p/s * h): Table 3D; for AUC (p/s * h): Luc; for Total Flux 3 hours / Total Flux 6 hours / Total Flux 24 hours: mice, i.v., 0.5 mg/kg, Luc mRNA
How it was run: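 Luc mRNA nanoparticle formulations given intravenously to mice (n=6) at 0.5 mg/kg; whole-body bioluminescence imaged at 3, 6 and 24 h. CD-1 mice received IP D-luciferin (200 μL of 15 mg/mL) 15 min before imaging; total flux quantified by region of interest.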

[5] = Lipid clearance: lipid level in mouse liver tissue (LC-MS/MS); format: in vivo; conditions: Table 3D, intravenous
luciferase (Luc) mRNA [6] = assay: Luc expression in liver, lung, spleen and femur 6 hours after intravenous administration; format: in vivo; conditions: mice, 0.5 mpk; for Total Flux Liver / Total Flux Lung / Total Flux Spleen: intravenous
How it was run: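 LNP-formulated mRNA given IV to mice (n=3) at 0.5 mpk; at 6 h, bioluminescence imaged ex vivo 15 min after IP D-luciferin (15 mg/mL, 200 μL), organs imaged within 25 min. Values are total flux by region of interest.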

hEPO mRNA = assay: hEPO expression after intravenous administration to rats; format: in vivo, rat; conditions: Table 19B; for [hEPO]: species, dose and time not given; for Lipid/MC3 AUC / Lipid/MC3 ([hEPO] ratio): relative to MC3
Description: The expression of hEPO and cytokine induction in rats intravenously administered a nanoparticle composition at a dose of 2.0 mpk was measured at 6 h.
(§1) The expression of hEPO in rats intravenously administered a nanoparticle composition at a dose of 0.2 mpk or 2.0 mpk was measured at 6 hours. Table 16 summarize the ratio of hEPO expression levels using various nanoparticle compositions as compared to the hEPO expression level using MC3 formulation and the lipid levels in the liver measured 48 hours after administration, as described above. Tables 17 and 18 summarize the lipid levels in the liver and spleen measured 48 hours after administration of Compounds 28, 33, 53, and 54. Liver and spleen levels represent the average values calculated for 3 rats in each group. As is shown in Tables 17 and 18, less than 10% of Compounds 28, 33, 53, and 54 remained in the liver after 48 hours, while greater than 60% of MC3 remained.
The expression of hEPO induced by intravenous administration to rats of nanoparticle compositions at various doses was measured at 2, 4, 6, 8, 24, and 48 hour time points. FIGS. 3-6 respectively summarize the hEPO expression measured upon intravenous administration of formulations including Compounds 26, 18, 25, and MC3 to rat at various doses. The lipid levels of Compound 26 in the liver after 48 hours were about 19%.
(§2) 005781 The expression of hEPO and lipid levels in the liver and spleen in rats intravenously administered a nanoparticle composition at a dose of 0.2 mpk was measured at various time points. Compounds 18 and 25 were selected for comparison with MC3. Lipids were formulated according to the standard MC3 formulation described above. Rats were administered intravenously a single 0.2 mpk dose and expression monitored at 0.25, 0.5, 1, 2, 4, 8, 24, and 48 hours after administration.
Blood collection and analysis for hEPO. Blood was collected from mice or rats via the tail vein and hEPO concentrations were determined using a hEPO ELISA assay.

[7] = Residual lipid levels in rat liver and spleen (UPLC-MS); format: in vivo; conditions: Table 19B, liver, 24 h
Description: At 48 h liver tissue was harvested for lipid quantification. To pre-weighed tissues, Milli-Q water was added (900 μL water per 100 mg tissue). Tissues were homogenized using an Omni probe homogenizer until uniform. 50 μL of samples and matrix calibration standards were aliquoted into a 96-well plate. 50 μL of blank matrix for matrix blanks and control blanks were aliquoted. 400 μL is spiking solution were manually added to all samples except matrix blanks. 400 μL of 50:50 ACN:IPA were manually added to matrix blanks. The plate was covered and the samples vortexed and centrifuged for 5 minutes at >3000 rpm. 200 μL of the samples were transferred into a clean 96-well plate for analysis. Samples were analyzed on a Waters Acquity UPLC using a Higgins Analytical Clipeus C8 column ([…], 30×2.1 mm) and a gradient of either 70-95% or 60-95% (Mobile Phase A: 5 mM ammonium formate in 50:50:1 H2O:MeOH:formic acid; Mobile Phase B: 5 mM ammonium formate in 100:1 MeOH:formic acid) over 1.3 min at 1.2 mL/min (column temperature 55° C.). Detection was based on electrospray ionization (ESI) in positive mode using a Sciex API5500 Mass Spectrometer.
as §1, §2

luciferase (Luc) mRNA [8] = assay: Luc expression (total flux) after intramuscular administration; format: in vivo, mice; conditions: Table 3H; intramuscular, Luc
How it was run: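 Mice given a single intramuscular dose of lipid nanoparticle formulations carrying modified Luc mRNA, alone or with H10 mRNA, at 0.001 or 0.01 mpk total. Luciferase expression recorded as total flux.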

[9] = Table 1A, lipid:DSPC:cholesterol:PEG-DMG 50:10:38.5:1.5 mol %
[10] = second column (head also says 6 h)
[11] = Table 1B, formulated with hEPO mRNA

SMILES | PDI ([1]; Table 1A) | Size (nm) [1, 9] [nm] | EE (%) ([2]; Table 1A) | pKa [3] | % Dose Remaining in Liver 6 h [5, 10] [%] | % Dose Remaining in Liver 6 h [5] [%] | PDI [1, 11] | Size (nm) [1, 11] [nm] | EE (%) [2, 11] [%] | % dose remaining, liver, 24 h [7] [%] | Lipid/MC3 AUC (luciferase (Luc) mRNA [4]; intravenous) | AUC (p/s * h) (luciferase (Luc) mRNA [4]; intravenous) | Total Flux 3 hours (luciferase (Luc) mRNA [4]) | Total Flux 6 hours (luciferase (Luc) mRNA [4]) | Total Flux 24 hours (luciferase (Luc) mRNA [4]) | Total Flux Liver (luciferase (Luc) mRNA [6]) | Total Flux Lung (luciferase (Luc) mRNA [6]) | Total Flux Spleen (luciferase (Luc) mRNA [6]) | AUC (hEPO) (hEPO mRNA) [pg·h/mL] | [hEPO] (hEPO mRNA) [pg/mL] | other results
CCCCCCCCC(CCCCCCCC)OC(=O)CCCCCCCN(C)CCCCCCCCCCCC(=O)OCCCCC [Compound 150, Pentyl 12-((8-(heptadecan-9-yloxy)-8-oxooctyl)(methyl)amino)dodecanoate] | 0.082 | 63.1 | 96.72 | 6.101 | <1 | <1 |  |  |  |  | 1.4 | 2.704E+011 | 1.66E+10 | 2.31E+10 | 3.86E+08 | 1.54E+09 | 2.20E+06 | 3.43E+07 |  |  | 
CCCCCCCCC(CCCCCCCC)OC(=O)CCCCCCCN(CCO)CCCCCCCCCC(=O)OCCCCCCC [Compound 189, Heptyl 10-((8-(heptadecan-9-yloxy)-8-oxooctyl)(2-hydroxyethyl)amino)decanoate] |  |  |  |  |  |  | 0.16 | 95.5 | 93.9 | 0.00 |  |  |  |  |  |  |  |  | 4.35e+07 | 3.01e+06 | Lipid/MC3 AUC (hEPO mRNA): 2.35
CCCCCCCCCOC(=O)CCCCCCCN(CCCCCCCC(=O)OC(CCCCCCCC)CCCCCCCC)C(C)CO (stereo not shown) [Compound 157, Heptadecan-9-yl 8-((1-hydroxypropan-2-yl)(8-(nonyloxy)-8-oxooctyl)amino)octanoate] | 0.093 | 61 | 96.04 | 6.275 | <1 | <1 |  |  |  |  | 1.3 | 2.481E+011 | 8.54E+09 | 2.22E+10 | 1.90E+08 | 2.27E+09 | 6.70E+06 | 5.15E+07 |  |  | App. pKa ([3]; Table 3F): 6.27; Novel lipid/MC3 expression ratio, 6 hr. time point, i.v. (luciferase (Luc) mRNA [4]; luciferase, intravenous, relative to MC3 formulation): 1.29; AUC (p/s * h) (luciferase (Luc) mRNA [8]): 4.68E+08 p/s * h; Lipid/MC3 AUC (luciferase (Luc) mRNA [8]): 0.80
CCCCCCCCCOC(=O)CCCCCCCN(CCO)CCCCCCC(C)OC(=O)C(CCCCCCCC)CCCCCCCC (stereo not shown) [Compound 234, 8-((2-Hydroxyethyl)(8-(nonyloxy)-8-oxooctyl)amino)octan-2-yl 2-octyldecanoate] |  |  |  |  |  |  | 0.22 | 96.3 | 94.7 | 0.03 |  |  |  |  |  |  |  |  | 5.17e+07 | 3.56e+06 | 
CCCCCCCCCOC(=O)CCCCCCCN(CCO)CCCCCCCCCC(CCCCCCCC)CCCCCCCC [Compound 153, Nonyl 8-((2-hydroxyethyl)(10-octyloctadecyl)amino)octanoate] | 0.150 | 83.7 | 98.39 | 6.580 | <1 | <1 |  |  |  |  | 1.4 | 2.697E+011 | 1.69E+10 | 2.28E+10 | 5.10E+08 | 1.18E+09 | 6.42E+06 | 1.42E+08 |  |  | 
CCCCCCCCC(CCCCCCCC)OC(=O)CCCCCCCN(CCO)CCCCCC(=O)OC(C)CCCCCCCCOC(C)=O (stereo not shown) [Compound 235, Heptadecan-9-yl 8-((6-((10-acetoxydecan-2-yl)oxy)-6-oxohexyl)(2-hydroxyethyl)amino)octanoate] |  |  |  |  |  |  | 0.24 | 228 | 40.9 | 0.06 |  |  |  |  |  |  |  |  | 1.71e+07 | 1.27e+06 | Lipid/MC3 ([hEPO] ratio) (hEPO mRNA): 0.8601; Lipid/MC3 AUC (hEPO mRNA): 0.93

Further lines, with some results ahead:

PDI ([1]; Table 1A) | Size (nm) [1, 9] [nm] | EE (%) ([2]; Table 1A) | pKa [3] | % Dose Remaining in Liver 6 h [5, 10] [%] | % Dose Remaining in Liver 6 h [5] [%] | PDI [1, 11] | Size (nm) [1, 11] [nm] | EE (%) [2, 11] [%] | % dose remaining, liver, 24 h [7] [%] | SMILES | Lipid/MC3 AUC (luciferase (Luc) mRNA [4]; intravenous) | AUC (p/s * h) (luciferase (Luc) mRNA [4]; intravenous) | Total Flux 3 hours (luciferase (Luc) mRNA [4]) | Total Flux 6 hours (luciferase (Luc) mRNA [4]) | Total Flux 24 hours (luciferase (Luc) mRNA [4]) | Total Flux Liver (luciferase (Luc) mRNA [6]) | Total Flux Lung (luciferase (Luc) mRNA [6]) | Total Flux Spleen (luciferase (Luc) mRNA [6]) | AUC (hEPO) (hEPO mRNA) [pg·h/mL] | [hEPO] (hEPO mRNA) [pg/mL] | other results
 |  |  |  |  |  | 0.15 | 82.5 | 99.3 | 0.14 | CCCCCCCCCOC(=O)CCCCCCCNCCCCCCCC(=O)OC(CCCCCCCC)CCCCCCCC [Compound 237] |  |  |  |  |  |  |  |  | 4.09e+07 | 3.47e+06 | 
 |  |  |  |  |  | 0.35 | 90.6 | 99.4 | 0.05 | CCCCCCCCCOC(=O)CCCCCCCN(CCCCCCCC(=O)OC(CCCCCCCC)CCCCCCCC)CCCC(N)=O [Compound 243, Heptadecan-9-yl 8-((4-amino-4-oxobutyl)(8-(nonyloxy)-8-oxooctyl)amino)octanoate] |  |  |  |  |  |  |  |  | 445000 | 40600 | Lipid/MC3 ([hEPO] ratio) (hEPO mRNA): 0.02755; Lipid/MC3 AUC (hEPO mRNA): 0.02
 |  |  |  |  |  | 0.23 | 150.3 | 76.3 | 0.00 | CCCCCCCCCOC(=O)CCCCCCCN(CCO)CCCCCC(=O)OC1CCC(CCCCC)CC1 (stereo not shown) [Compound 232, Nonyl 8-((2-hydroxyethyl)(6-oxo-6-((4-pentylcyclohexyl)oxy)hexyl)amino)octanoate] |  |  |  |  |  |  |  |  | 73800 | 7024.114 | Lipid/MC3 AUC (hEPO mRNA): <0.01
0.200 | 192.7 | 25.49 | 6.646 | <1 | <1 |  |  |  |  | CCCCCCCCC(CCCCCCCC)OC(=O)CCCCCCCN(CCO)CCCCCCCC(=O)OCC(CCCCCCC)OC (stereo not shown) [Compound 148, Heptadecan-9-yl 8-((2-hydroxyethyl)(8-((2-methoxynonyl)oxy)-8-oxooctyl)amino)octanoate] | 2.6 | 4.965E+011 | 6.28E+10 | 3.71E+10 | 1.43E+09 | 4.39E+09 | 3.27E+07 | 2.71E+09 |  |  | Flux in the spleen (luciferase (Luc) mRNA [6]; i.v., in words): highest
